Where “and” joins values, the source holds several entries; their conditions need not be identical. Equal values may be shown once.
Assays:
[1] = Liquid, MP522 conductivity instrument
[2] = xn = mol fraction of the nth substance listed; conditions: 298.15 K, 101 kPa, Liquid, MP522 conductivity instrument

CCCC[n+]1ccc(C)cc1.O=S(=O)([N-]S(=O)(=O)C(F)(F)F)C(F)(F)F
Conditions | electrical conductivity
[1], 298.15 K, 101 kPa | 0.332 S/m and 0.333 S/m

CC[n+]1ccc(C)cc1.O=S(=O)([N-]S(=O)(=O)C(F)(F)F)C(F)(F)F
Conditions | electrical conductivity
[1], 298.15 K, 101 kPa | 0.771 S/m and 0.769 S/m

CCCC[n+]1ccc(C)cc1.O=S(=O)([N-]S(=O)(=O)C(F)(F)F)C(F)(F)F + CCO
[2]
Conditions | electrical conductivity [S/m]
x1 = 0.011 | 0.243
x1 = 0.0125 | 0.269
x1 = 0.015 | 0.311
x1 = 0.0186 | 0.369
x1 = 0.0258 | 0.474
x1 = 0.0376 | 0.623
x1 = 0.0436 | 0.689
x1 = 0.0602 | 0.844
x1 = 0.0676 | 0.901
x1 = 0.0852 | 1.01
x1 = 0.1143 | 1.13
x1 = 0.1262 | 1.16
x1 = 0.1387 | 1.19
x1 = 0.1537 | 1.21
x1 = 0.1811 | 1.23
x1 = 0.2232 | 1.22
x1 = 0.2748 | 1.17
x1 = 0.3347 | 1.1
x1 = 0.3809 | 1.03
x1 = 0.4405 | 0.939
x1 = 0.5405 | 0.793
x1 = 0.642 | 0.663
x1 = 0.7148 | 0.579
x1 = 0.8106 | 0.482
x1 = 0.9328 | 0.379
x1 = 1 | 0.333

CC[n+]1ccc(C)cc1.O=S(=O)([N-]S(=O)(=O)C(F)(F)F)C(F)(F)F + CCO
[2]
Conditions | electrical conductivity [S/m]
x1 = 0.0118 | 0.292
x1 = 0.0152 | 0.36
x1 = 0.021 | 0.468
x1 = 0.0327 | 0.669
x1 = 0.0593 | 1.04
x1 = 0.07 | 1.16
x1 = 0.0857 | 1.31
x1 = 0.1196 | 1.56
x1 = 0.1573 | 1.73
x1 = 0.2361 | 1.87
x1 = 0.3013 | 1.86
x1 = 0.3773 | 1.77
x1 = 0.4527 | 1.65
x1 = 0.53 | 1.51
x1 = 0.608 | 1.37
x1 = 0.6908 | 1.22
x1 = 0.7803 | 1.07
x1 = 0.8913 | 0.903
x1 = 1 | 0.769

CCCC[n+]1ccc(C)cc1.O=S(=O)([N-]S(=O)(=O)C(F)(F)F)C(F)(F)F + CO
[2]
Conditions | electrical conductivity [S/m]
x1 = 0.00761 | 0.7
x1 = 0.00979 | 0.836
x1 = 0.0118 | 0.951
x1 = 0.0142 | 1.07
x1 = 0.0176 | 1.24
x1 = 0.021 | 1.38
x1 = 0.0297 | 1.69
x1 = 0.0366 | 1.86
x1 = 0.0544 | 2.15
x1 = 0.0653 | 2.25
x1 = 0.0711 | 2.28
x1 = 0.0773 | 2.32
x1 = 0.1083 | 2.34
x1 = 0.1388 | 2.25
x1 = 0.1724 | 2.11
x1 = 0.1977 | 2
x1 = 0.2256 | 1.87
x1 = 0.2662 | 1.68
x1 = 0.3346 | 1.4
x1 = 0.3989 | 1.18
x1 = 0.481 | 1.02
x1 = 0.5543 | 0.861
x1 = 0.6316 | 0.719
x1 = 0.714 | 0.599
x1 = 0.7932 | 0.504
x1 = 0.8534 | 0.444
x1 = 0.9551 | 0.362
x1 = 1 | 0.332

CC[n+]1ccc(C)cc1.O=S(=O)([N-]S(=O)(=O)C(F)(F)F)C(F)(F)F + CO
[2]
Conditions | electrical conductivity [S/m]
x1 = 0.00925 | 0.925
x1 = 0.0105 | 1.01
x1 = 0.0144 | 1.27
x1 = 0.0176 | 1.45
x1 = 0.0227 | 1.72
x1 = 0.0313 | 2.1
x1 = 0.0393 | 2.36
x1 = 0.0492 | 2.62
x1 = 0.0575 | 2.79
x1 = 0.0666 | 2.94
x1 = 0.0757 | 3.05
x1 = 0.0856 | 3.14
x1 = 0.0993 | 3.22
x1 = 0.1435 | 3.26
x1 = 0.1601 | 3.23
x1 = 0.1736 | 3.2
x1 = 0.1902 | 3.14
x1 = 0.2037 | 3.09
x1 = 0.2297 | 2.97
x1 = 0.2575 | 2.84
x1 = 0.284 | 2.72
x1 = 0.3231 | 2.53
x1 = 0.3561 | 2.39
x1 = 0.3932 | 2.23
x1 = 0.4574 | 2
x1 = 0.5075 | 1.81
x1 = 0.5713 | 1.61
x1 = 0.6042 | 1.52
x1 = 0.6803 | 1.33
x1 = 0.7416 | 1.2
x1 = 0.8215 | 1.04
x1 = 0.8959 | 0.912
x1 = 0.918 | 0.883
x1 = 1 | 0.771

CCCC[n+]1ccccc1.O=S(=O)([N-]S(=O)(=O)C(F)(F)F)C(F)(F)F [1-butylpyridinium bis[(trifluoromethyl)sulfonyl]imide]
electrical conductivity, [1]
Conditions | 283.15 K | 293.15 K | 298.15 K | 303.15 K | 313.15 K
101 kPa | 0.151 S/m | – | 0.308 S/m | 0.377 S/m | 0.542 S/m and 0.54 S/m
101.33 kPa | 0.15 S/m and 0.151 S/m | 0.246 S/m | 0.307 S/m and 0.308 S/m | 0.378 S/m and 0.377 S/m | 0.541 S/m and 0.542 S/m and 0.54 S/m

CCCC[n+]1ccccc1.O=S(=O)([N-]S(=O)(=O)C(F)(F)F)C(F)(F)F [1-butylpyridinium bis[(trifluoromethyl)sulfonyl]imide] + CCO
[2]
Conditions | electrical conductivity [S/m]
x1 = 0.02 | 0.389
x1 = 0.0313 | 0.543
x1 = 0.0415 | 0.66
x1 = 0.0601 | 0.83
x1 = 0.0722 | 0.915
x1 = 0.103 | 1.06
x1 = 0.1448 | 1.16
x1 = 0.1659 | 1.18
x1 = 0.184 | 1.19
x1 = 0.196 | 1.19
x1 = 0.2208 | 1.18
x1 = 0.2693 | 1.14
x1 = 0.3122 | 1.09
x1 = 0.362 | 1.02
x1 = 0.424 | 0.926
x1 = 0.4616 | 0.872
x1 = 0.5169 | 0.793
x1 = 0.5597 | 0.735
x1 = 0.6073 | 0.674
x1 = 0.6706 | 0.598
x1 = 0.7463 | 0.516
x1 = 0.8415 | 0.426
x1 = 0.8925 | 0.383
x1 = 1 | 0.307

CCCC[n+]1ccccc1.O=S(=O)([N-]S(=O)(=O)C(F)(F)F)C(F)(F)F [1-butylpyridinium bis[(trifluoromethyl)sulfonyl]imide] + CO
[2]
Conditions | electrical conductivity [S/m]
x1 = 0.00227 | 0.302
x1 = 0.00676 | 0.679
x1 = 0.0112 | 0.961
x1 = 0.0179 | 1.29
x1 = 0.023 | 1.5
x1 = 0.0297 | 1.71
x1 = 0.0427 | 1.99
x1 = 0.0507 | 2.12
x1 = 0.0696 | 2.28
x1 = 0.092 | 2.35
x1 = 0.1676 | 2.15
x1 = 0.2137 | 1.96
x1 = 0.2653 | 1.72
x1 = 0.2984 | 1.58
x1 = 0.3655 | 1.33
x1 = 0.4009 | 1.22
x1 = 0.4397 | 1.11
x1 = 0.5194 | 0.91
x1 = 0.561 | 0.825
x1 = 0.6014 | 0.749
x1 = 0.6433 | 0.681
x1 = 0.7132 | 0.581
x1 = 0.7592 | 0.523
x1 = 0.8182 | 0.456
x1 = 0.8544 | 0.421
x1 = 0.8988 | 0.381
x1 = 0.9425 | 0.346
x1 = 1 | 0.308

CC[n+]1ccccc1.O=S(=O)([N-]S(=O)(=O)C(F)(F)F)C(F)(F)F [1-ethylpyridinium bis[(trifluoromethyl)sulfonyl]imide]
Conditions | electrical conductivity
[1], 298.15 K, 101 kPa | 0.63 S/m and 0.629 S/m

CC[n+]1ccccc1.O=S(=O)([N-]S(=O)(=O)C(F)(F)F)C(F)(F)F [1-ethylpyridinium bis[(trifluoromethyl)sulfonyl]imide] + CCO
[2]
Conditions | electrical conductivity [S/m]
x1 = 0.0428 | 0.803
x1 = 0.0551 | 0.956
x1 = 0.0755 | 1.16
x1 = 0.0881 | 1.26
x1 = 0.1135 | 1.43
x1 = 0.1366 | 1.54
x1 = 0.1789 | 1.67
x1 = 0.2096 | 1.71
x1 = 0.234 | 1.73
x1 = 0.2537 | 1.73
x1 = 0.2781 | 1.72
x1 = 0.3029 | 1.7
x1 = 0.3612 | 1.64
x1 = 0.4404 | 1.51
x1 = 0.4844 | 1.44
x1 = 0.5537 | 1.31
x1 = 0.5948 | 1.24
x1 = 0.6418 | 1.16
x1 = 0.7011 | 1.05
x1 = 0.76 | 0.954
x1 = 0.8228 | 0.858
x1 = 0.8845 | 0.769
x1 = 1 | 0.629

CC[n+]1ccccc1.O=S(=O)([N-]S(=O)(=O)C(F)(F)F)C(F)(F)F [1-ethylpyridinium bis[(trifluoromethyl)sulfonyl]imide] + CO
[2]
Conditions | electrical conductivity [S/m]
x1 = 0.0169 | 1.42
x1 = 0.0206 | 1.61
x1 = 0.03 | 2
x1 = 0.0416 | 2.42
x1 = 0.0535 | 2.7
x1 = 0.068 | 2.93
x1 = 0.089 | 3.11
x1 = 0.1049 | 3.17
x1 = 0.1209 | 3.19
x1 = 0.1541 | 3.14
x1 = 0.2007 | 2.95
x1 = 0.2781 | 2.55
x1 = 0.3667 | 2.12
x1 = 0.4224 | 1.9
x1 = 0.5562 | 1.44
x1 = 0.6863 | 1.12
x1 = 0.8307 | 0.863
x1 = 1 | 0.63

CCCCCC[n+]1ccccc1.O=S(=O)([N-]S(=O)(=O)C(F)(F)F)C(F)(F)F [1-hexylpyridinium bis(trifluromethylsulfonyl)imide]
[1], 101 kPa
Conditions | electrical conductivity
283.15 K | 0.0737 S/m
293.15 K | 0.128 S/m and 0.129 S/m
298.15 K | 0.163 S/m
303.15 K | 0.205 S/m
313.15 K | 0.306 S/m

CCCCC[n+]1ccccc1.O=S(=O)([N-]S(=O)(=O)C(F)(F)F)C(F)(F)F [1-pentylpyridinium bis(trifluoromethylsulfonyl)amide]
Conditions | electrical conductivity [S/m]
[1], 298.15 K, 101 kPa | 0.216

CCCCC[n+]1ccccc1.O=S(=O)([N-]S(=O)(=O)C(F)(F)F)C(F)(F)F [1-pentylpyridinium bis(trifluoromethylsulfonyl)amide] + CCO
[2]
Conditions | electrical conductivity [S/m]
x1 = 0.0223 | 0.403
x1 = 0.0292 | 0.483
x1 = 0.0374 | 0.574
x1 = 0.0477 | 0.669
x1 = 0.0603 | 0.761
x1 = 0.0725 | 0.831
x1 = 0.092 | 0.912
x1 = 0.1279 | 0.991
x1 = 0.1529 | 1.01
x1 = 0.1636 | 1.01
x1 = 0.175 | 1.01
x1 = 0.2038 | 0.998
x1 = 0.2608 | 0.941
x1 = 0.3058 | 0.882
x1 = 0.3508 | 0.82
x1 = 0.4166 | 0.731
x1 = 0.4692 | 0.662
x1 = 0.5309 | 0.587
x1 = 0.6063 | 0.503
x1 = 0.6746 | 0.437
x1 = 0.7613 | 0.363
x1 = 0.8138 | 0.325
x1 = 0.8772 | 0.283
x1 = 0.9319 | 0.251
x1 = 1 | 0.216

CCCCC[n+]1ccccc1.O=S(=O)([N-]S(=O)(=O)C(F)(F)F)C(F)(F)F [1-pentylpyridinium bis(trifluoromethylsulfonyl)amide] + CO
[2]
Conditions | electrical conductivity [S/m]
x1 = 0.00257 | 0.323
x1 = 0.00682 | 0.658
x1 = 0.012 | 0.966
x1 = 0.0185 | 1.26
x1 = 0.0256 | 1.5
x1 = 0.0325 | 1.67
x1 = 0.0398 | 1.82
x1 = 0.0546 | 1.97
x1 = 0.0734 | 2.1
x1 = 0.0854 | 2.11
x1 = 0.1093 | 2.05
x1 = 0.1709 | 1.82
x1 = 0.2113 | 1.61
x1 = 0.3105 | 1.22
x1 = 0.3653 | 1.03
x1 = 0.4197 | 0.886
x1 = 0.4604 | 0.788
x1 = 0.5266 | 0.652
x1 = 0.5689 | 0.585
x1 = 0.6107 | 0.522
x1 = 0.6447 | 0.479
x1 = 0.7183 | 0.401
x1 = 0.7639 | 0.361
x1 = 0.8278 | 0.313
x1 = 0.8938 | 0.27
x1 = 0.9397 | 0.246
x1 = 1 | 0.216

Source: the NIST ThermoML archive (doi:10.1021/je200616t)
